Several values for one entry are separate records, joined by “and”; a condition that tells them apart may be missing. Equal entries are not always repeated. Toxic doses and inconclusive results are not listed. Cut-off read from the data, not from the text of the source: active = T/C of 150% or more; inactive = T/C below 125%.
Tested on: L1210 leukemia ip in BDF1 mice, survival T/C
Assay: NCI In Vivo Anticancer Drug Screen. Data for tumor model L1210 Leukemia (intraperitoneal) in B6D2F1 (BDF1) mice
Settings: endpoint: mean survival time, higher = longer survival
Procedure, shortened: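 In this screen, tumor-bearing mice given compound are compared to those given vehicle, and their survival values are reported as a treated-to-control quotient.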

[1] = dose: 100.0 mg/kg/injection, schedule: Q04DX003 (ip), vehicle: saline
[2] = dose: 100.0 mg/kg/injection, schedule: Q04DX003 (ip), vehicle: saline with Tween-80
[3] = dose: 200.0 mg/kg/injection, schedule: Q04DX003 (ip), vehicle: saline with Tween-80
[4] = dose: 400.0 mg/kg/injection, schedule: Q04DX003 (ip), vehicle: saline with Tween-80
[5] = dose: 100.0 mg/kg/injection, schedule: Q04DX002 (ip), vehicle: Klucel (hydroxypropylcellulose) (HPC)
[6] = dose: 12.5 mg/kg/injection, schedule: Q01DX009 (ip), vehicle: saline with Tween-80
[7] = dose: 50.0 mg/kg/injection, schedule: Q01DX009 (ip), vehicle: saline with Tween-80
[8] = dose: 100.0 mg/kg/injection, schedule: Q01DX001 (ip), vehicle: saline
[9] = dose: 25.0 mg/kg/injection, schedule: Q01DX009 (ip), vehicle: saline
[10] = dose: 50.0 mg/kg/injection, schedule: Q01DX009 (ip), vehicle: saline
[11] = dose: 100.0 mg/kg/injection, schedule: Q01DX009 (ip), vehicle: saline
[12] = dose: 100.0 mg/kg/injection, schedule: Q01DX001 (ip), vehicle: other
[13] = dose: 100.0 mg/kg/injection, schedule: Q01DX009 (ip), vehicle: Klucel (hydroxypropylcellulose) (HPC)
[14] = dose: 200.0 mg/kg/injection, schedule: Q01DX001 (ip), vehicle: other
[15] = dose: 200.0 mg/kg/injection, schedule: Q01DX009 (ip), vehicle: Klucel (hydroxypropylcellulose) (HPC)
[16] = dose: 400.0 mg/kg/injection, schedule: Q01DX001 (ip), vehicle: other
[17] = dose: 400.0 mg/kg/injection, schedule: Q01DX009 (ip), vehicle: Klucel (hydroxypropylcellulose) (HPC)
[18] = dose: 100.0 mg/kg/injection, schedule: Q04DX003 (ip), vehicle: Klucel (hydroxypropylcellulose) (HPC)
[19] = dose: 200.0 mg/kg/injection, schedule: Q04DX003 (ip), vehicle: Klucel (hydroxypropylcellulose) (HPC)
[20] = dose: 10.0 mg/kg/injection, schedule: Q01DX001 (ip), vehicle: acetone

Measured: T/C

O=C(CSc1cc(-c2ccc(Cl)cc2)s[s+]1)c1ccc(Cl)cc1
inactive: [1] 102 % of control | dose: 200.0 mg/kg/injection, schedule: Q04DX003 (ip), vehicle: saline 98 % of control | dose: 400.0 mg/kg/injection, schedule: Q04DX003 (ip), vehicle: saline 98 % of control

Cc1ccc(OS(=O)(=O)c2cccc([N+](=O)[O-])c2)cc1
inactive: [2] 102 % of control | [3] 97 % of control | [4] 100 % of control

O=C(NOC(=O)c1ccccc1)c1ccccc1
inactive: dose: 25.0 mg/kg/injection, schedule: Q04DX002 (ip), vehicle: Klucel (hydroxypropylcellulose) (HPC) 97 % of control | dose: 50.0 mg/kg/injection, schedule: Q04DX002 (ip), vehicle: Klucel (hydroxypropylcellulose) (HPC) 97 % of control | [5] 97 % of control | [2] 103 % of control | [3] 91 % of control | [4] 101 % of control

C[n+]1c2c(cc3ccccc31)CCC2
inactive: [6] 87 % of control | dose: 25.0 mg/kg/injection, schedule: Q01DX009 (ip), vehicle: saline with Tween-80 97 % of control | [7] 108 % of control and 90 % of control

c1cc[n+](Cc2nc3ccccc3[nH]2)cc1
inactive: [8] 102 % of control and 95 % of control

Nc1nc(N)c(-c2ccc(Cl)c(Cl)c2)c(COc2cccc(CNC(=O)c3cccc(S(=O)(=O)F)c3)c2)n1
inactive: [9] 110 % of control | [10] 102 % of control | [11] 98 % of control | dose: 200.0 mg/kg/injection, schedule: Q01DX009 (ip), vehicle: saline 102 % of control | dose: 400.0 mg/kg/injection, schedule: Q01DX009 (ip), vehicle: saline 105 % of control

Cc1cnc(N[N+](=O)[O-])nc1-c1ccccc1O
inactive: [5] 96 % of control | dose: 200.0 mg/kg/injection, schedule: Q04DX002 (ip), vehicle: Klucel (hydroxypropylcellulose) (HPC) 108 % of control | dose: 400.0 mg/kg/injection, schedule: Q04DX002 (ip), vehicle: Klucel (hydroxypropylcellulose) (HPC) 105 % of control

CC(=O)c1cccc(N=C=O)c1
inactive: dose: 25.0 mg/kg/injection, schedule: Q01DX001 (ip), vehicle: saline with Tween-80 101 % of control | dose: 50.0 mg/kg/injection, schedule: Q01DX001 (ip), vehicle: saline with Tween-80 93 % of control | dose: 100.0 mg/kg/injection, schedule: Q01DX001 (ip), vehicle: saline with Tween-80 111 % of control

CC(=O)OCC1OC(n2ncc3c(=O)[nH]cnc32)C(OC(C)=O)C1OC(C)=O (stereo unspecified)
inactive: dose: 12.5 mg/kg/injection, schedule: Q01DX005 (ip), vehicle: water 103 % of control | dose: 25.0 mg/kg/injection, schedule: Q01DX005 (ip), vehicle: water 104 % of control | dose: 50.0 mg/kg/injection, schedule: Q01DX005 (ip), vehicle: water 97 % of control | dose: 100.0 mg/kg/injection, schedule: Q01DX005 (ip), vehicle: water 98 % of control | dose: 200.0 mg/kg/injection, schedule: Q01DX005 (ip), vehicle: water 92 % of control

O=C(O)C(O)Cc1ccc(O)cc1 (stereo unspecified)
inactive: [8] 90 % of control | dose: 200.0 mg/kg/injection, schedule: Q01DX001 (ip), vehicle: saline 92 % of control | dose: 400.0 mg/kg/injection, schedule: Q01DX001 (ip), vehicle: saline 97 % of control

CC1(C)CCC2=C1CC[C@H]1[C@H]2CCC2=CC(=O)CC[C@@]21C
inactive: dose: 50.0 mg/kg/injection, schedule: Q01DX001 (sc), vehicle: steriod suspending solution 102 % of control | dose: 100.0 mg/kg/injection, schedule: Q01DX001 (sc), vehicle: steriod suspending solution 96 % of control | dose: 200.0 mg/kg/injection, schedule: Q01DX001 (sc), vehicle: steriod suspending solution 102 % of control | dose: 400.0 mg/kg/injection, schedule: Q01DX001 (sc), vehicle: steriod suspending solution 102 % of control

O=C1Nc2nc(=O)nc3[nH]c(=O)nc(n23)N1
inactive: [9] 106 % of control | [10] 98 % of control | dose: 50.0 mg/kg/injection, schedule: Q04DX003 (ip), vehicle: saline 110 % of control | [11] 98 % of control | [1] 103 % of control

CCC[As](=O)(O)CCCc1ccccc1
inactive: dose: 0.78 mg/kg/injection, schedule: Q01DX009 (ip), vehicle: Klucel (hydroxypropylcellulose) (HPC) 100 % of control | dose: 1.56 mg/kg/injection, schedule: Q01DX009 (ip), vehicle: Klucel (hydroxypropylcellulose) (HPC) 87 % of control | dose: 3.13 mg/kg/injection, schedule: Q01DX009 (ip), vehicle: Klucel (hydroxypropylcellulose) (HPC) 101 % of control

CCCCC(=O)c1cc(OC)cc(OC)c1
inactive: dose: 50.0 mg/kg/injection, schedule: Q01DX001 (ip), vehicle: other 109 % of control | dose: 100.0 mg/kg/injection, schedule: Q01DX001 (ip), vehicle: Klucel (hydroxypropylcellulose) (HPC) 95 % of control | [12] 102 % of control | [13] 97 % of control | dose: 200.0 mg/kg/injection, schedule: Q01DX001 (ip), vehicle: Klucel (hydroxypropylcellulose) (HPC) 95 % of control | [14] 104 % of control | [15] 96 % of control | dose: 400.0 mg/kg/injection, schedule: Q01DX001 (ip), vehicle: Klucel (hydroxypropylcellulose) (HPC) 98 % of control | [16] 91 % of control | [17] 100 % of control

CCCCCCCCCCCCc1c(C(OC)OC)[nH]c(=S)[nH]c1=O
inactive: dose: 100.0 mg/kg/injection, schedule: Q01DX009 (ip), vehicle: saline with Tween-80 94 % of control | [2] 98 % of control | dose: 200.0 mg/kg/injection, schedule: Q01DX009 (ip), vehicle: saline with Tween-80 100 % of control | [3] 96 % of control | dose: 400.0 mg/kg/injection, schedule: Q01DX009 (ip), vehicle: saline with Tween-80 103 % of control | [4] 93 % of control

OC(CCl)CNc1ccc(-c2ccccc2)cc1 (stereo unspecified)
inactive: [12] 94 % of control | [18] 100 % of control | [14] 92 % of control | [19] 86 % of control | [16] 97 % of control

O=S1(=O)C=C(Cl)C2C3C=CC(C3)C21 (stereo unspecified)
inactive: dose: 0.62 mg/kg/injection, schedule: Q01DX009 (ip), vehicle: acetone 101 % of control | dose: 1.25 mg/kg/injection, schedule: Q01DX009 (ip), vehicle: acetone 104 % of control | dose: 2.5 mg/kg/injection, schedule: Q04DX003 (ip), vehicle: acetone 90 % of control | dose: 5.0 mg/kg/injection, schedule: Q04DX003 (ip), vehicle: acetone 92 % of control | [20] 97 % of control

FC(F)(F)c1ccc2nc(CI)c(CI)nc2c1
inactive: dose: 6.0 mg/kg/injection, schedule: Q01DX009 (ip), vehicle: other 98 % of control | dose: 12.0 mg/kg/injection, schedule: Q01DX009 (ip), vehicle: other 91 % of control | [6] 88 % of control | dose: 25.0 mg/kg/injection, schedule: Q01DX009 (ip), vehicle: other 95 % of control | dose: 25.0 mg/kg/injection, schedule: Q04DX003 (ip), vehicle: other 94 % of control | dose: 50.0 mg/kg/injection, schedule: Q04DX003 (ip), vehicle: other 87 % of control | dose: 100.0 mg/kg/injection, schedule: Q04DX003 (ip), vehicle: other 97 % of control

CC(=O)N1CCCC1=O
inactive: [13] 100 % of control | [18] 96 % of control | [15] 100 % of control | [19] 102 % of control | [17] 95 % of control | dose: 400.0 mg/kg/injection, schedule: Q04DX003 (ip), vehicle: Klucel (hydroxypropylcellulose) (HPC) 102 % of control

Cc1ccc([I+]c2ccc(C)c(C)c2C)c(C)c1C
inactive: dose: 2.5 mg/kg/injection, schedule: Q01DX001 (ip), vehicle: acetone 100 % of control | dose: 5.0 mg/kg/injection, schedule: Q01DX001 (ip), vehicle: acetone 102 % of control | [20] 96 % of control | dose: 22.0 mg/kg/injection, schedule: Q01DX001 (ip), vehicle: acetone 103 % of control

c1ccc(CC23CCCCC2N3)cc1 (stereo unspecified)
inactive: [7] 95 % of control
